From patent publication US9371527B2, “Compositions and methods related to protein displacement therapy for myotonic distrophy” (University of Rochester, priority 2006, dated 2016)
“Also recorded” adds a separate entry of the source.

Columns and labels:
[1] = system: Mbnl1^ΔE3/ΔE3 mice; test: Electromyography of myotonia, Mbnl1^ΔE3/ΔE3 mice; format: in vivo; details: TA muscle, 3 weeks
Experimental: (§1) FIGS. 27A, 27B, 27C, 27D, and 27E show antisense morpholino represses exon 7a inclusion, restores ClC-1 protein expression, and rescues myotonia in Mbnl1^ΔE3/ΔE3 mice. […] Bar=20 μM. […] Mean±s.d.; n=3 per group; **P<0.0001 antisense- versus invert-treated control; ANOVA.
EMG was performed under general anesthesia as described previously (Kanadia, R. N., et al. (2003) Science 302:1978-1980). Images and video recordings of electromyographic myotonia in HSA^LR and Mbnl1^ΔE3/ΔE3 mice are shown in previous reports (Kanadia, R. N., et al. (2003) Science 302:1978-1980; Mankodi, A., et al. (2000) Science 289:1769-1773). A minimum of 15 needle insertions were performed for each muscle examined Myotonic discharges were graded on a 4 point scale: 0, no myotonia; 1, occasional myotonic discharge in <50% of needle insertions; 2, myotonic discharge in >50% of needle insertions; 3: myotonic discharge with nearly every insertion.

[2] = system: ClC-1 exon 7a; test: RT-PCR of ClC-1 exon 7a splicing after ClC-1 antisense morpholino, HSA^LR mice; format: in vivo; details: TA muscle; for comparison of exon 7a skipping between antisense morpholinos: 3 weeks, 20 μg total
Experimental: FIGS. 21A, 21B, 21C, and 21D show the effects of antisense morpholino targeting the 3′ splice junction of ClC-1 exon 7a on splicing and myotonia in HSA^LR transgenic mice. Antisense morpholino targeting the 3′ splice junction of ClC-1 exon 7a was injected into tibialis anterior muscle of HSA^LR mice under general anesthesia (sequence 5′-[…]-3′ (SEQ ID NO: 4)). The contralateral muscle was injected with morpholino having the inverted sequence (5′-[…]-3′(SEQ ID NO: 5)). Uptake into muscle fibers was enhanced by in vivo electroporation. The determination of which side received the antisense morpholino was randomized. 21 days later, myotonia was evaluated by electromyography and muscle was harvested for RT-PCR analysis of ClC-1 alternative splicing. Electromyography was blinded to the randomization.
HSA^LR (Mankodi, A., et al. (2000) Science 289:1769-1773) or Mbnl1^ΔE3/ΔE3 mice (Kanadia, R. N., et al. (2003) Science 302:1978-1980) were anesthetized by intraperitoneal injection of 100 mg/kg ketamine, 10 mg/kg xylazine, and 3 mg/kg acepromazine. TA muscle was pretreated by intramuscular injection of bovine hyaluronidase (15 μl, 0.4 U/μl) (Sigma) (McMahon, J. M., et al. (2001) Gene Ther 8:1264-1270). Two hours later, 10 or 20 μg of morpholino in a total volume of 20 μl phosphate buffered saline (PBS) was injected using a 30-gauge needle. TA muscle was then electroporated using electrodes placed parallel to the long axis of the muscle. Electroporation parameters were 100 V/cm, 10 pulses at 1 Hz, and 20 ms duration per pulse. Antisense or control morpholino with inverted sequence was injected into TA muscles of opposite limbs. The determination of which TA received antisense morpholino was randomized, and investigators remained blinded to this assignment until EMG analyses were completed. Other analyses were performed without blinding. For experiments to determine the distribution of injected oligos, the antisense morpholino was labeled with carboxyfluorescein and cryosections of muscle (10 μM) were examined by fluorescence microscopy, with or without fixation in 4% paraformaldehyde. Some sections were co-labeled with TRITC-wheat germ agglutinin (Parsons, S. A., et al. (2003) Mol Cell Biol 23:4331-4343) (50 μg/ml in PBS; Sigma) and 4′,6-diamidino-2-phenylindole (DAPI) to highlight the surface membranes and nuclei of muscle fibers.
(§2) Mice were sacrificed three or eight weeks after morpholino injection. TA muscles were removed and frozen in liquid nitrogen. Total RNA was isolated with TriReagent (Molecular Research Center). cDNA synthesis was primed with oligo dT as described previously (Mankodi, A., et al. (2002) Mol Cell 10:35-44). Assays for alternative splicing of ClC-1 and Titin were described previously (Mankodi, A., et al. (2002) Mol Cell 10:35-44; Lin, X., et al. (2006) Hum Mol Genet 15:2087-2097). Primer sequences were
(§3) RT-PCR products (22 cycles) were separated on agarose gels, stained with SYBR green II, and scanned on a laser fluorimager (Molecular Dynamics). Band intensity was quantified using ImageQuant software. Total levels of ClC-1 mRNA were determined by quantitative real-time RT-PCR (Taqman, Applied Biosystems) relative to housekeeping gene RNA polymerase II transcription factor IIB.

[3] = system: ClC-1 mRNA; test: Quantitative real time RT-PCR of ClC-1 mRNA level; format: in vivo, HSA^LR mice; details: 3 weeks after treatment, relative to RNA polymerase II transcription factor IIB
Excerpt: (§4) HSA^LR and WT mice have the same (FVB) inbred strain background. […] FIGS. 25D and 25E show the percentage of ClC-1 splice products that include exon 7a is shown at 3 (D) and 8 (E) weeks following morpholino injection. Mean±s.d.; n=3 per group; **P<0.001; *P=0.035 antisense- versus invert-treated controls; t-test. […] ClC-1 mRNA level is expressed in arbitrary units relative to housekeeping gene RNA polymerase II transcription factor IIB. Mean±s.d.; n=3 per group; *P=0.06 for antisense vs invert-treated control; t-test.
as §3

[4] = system: ClC-1 exon 7a; test: RT-PCR of ClC-1 exon 7a splicing after antisense morpholino, Mbnl1^ΔE3/ΔE3 mice; format: in vivo; details: TA muscle, 3 weeks, 20 μg
Experimental: as §1
To examine the effects of AON in this model, antisense morpholino or invert control was injected into TA muscle of Mbnl1^ΔE3/ΔE3 mice.
HSA^LR (Mankodi, A., et al. (2000) Science 289:1769-1773) or Mbnl1^ΔE3/ΔE3 mice (Kanadia, R. N., et al. (2003) Science 302:1978-1980) were anesthetized by intraperitoneal injection of 100 mg/kg ketamine, 10 mg/kg xylazine, and 3 mg/kg acepromazine. TA muscle was pretreated by intramuscular injection of bovine hyaluronidase (15 μl, 0.4 U/μl) (Sigma) (McMahon, J. M., et al. (2001) Gene Ther 8:1264-1270). Two hours later, 10 or 20 μg of morpholino in a total volume of 20 μl phosphate buffered saline (PBS) was injected using a 30-gauge needle. TA muscle was then electroporated using electrodes placed parallel to the long axis of the muscle. Electroporation parameters were 100 V/cm, 10 pulses at 1 Hz, and 20 ms duration per pulse. […] For experiments to determine the distribution of injected oligos, the antisense morpholino was labeled with carboxyfluorescein and cryosections of muscle (10 μM) were examined by fluorescence microscopy, with or without fixation in 4% paraformaldehyde. […]

[5] = system: Titin, ZASP, Serca1 alternative splicing; test: RT-PCR of alternative splicing of other genes misregulated in DM1 after ClC-1 antisense morpholino; format: in vivo, HSA^LR mice; details: HSA^LR TA muscle
Excerpt: as §4, §2, §3

Row | Substance | myotonia (EMG) ([1]; listed as antisense morpholino) | ClC-1 exon 7a inclusion ([2]; 3 weeks (21 days) after single injection + electroporation, listed as antisense morpholino) | comparison of exon 7a skipping between antisense morpholinos [2] | comparison of exon 7a skipping between antisense morpholinos ([2]; listed as AON targeting the 3′ splice site) | ClC-1 exon 7a inclusion ([2]; 8 weeks after injection, 20 μg) | ClC-1 exon 7a inclusion ([2]; 8 weeks after injection, 20 μg, listed as antisense morpholino) | fraction of splice products encoding functional ClC-1 channels (band 1) ([2]; 21 days) | level of ClC-1 mRNA ([3]; listed as antisense morpholino) | ClC-1 exon 7a inclusion ([4]; listed as antisense morpholino) | ClC-1 exon 7a inclusion ([4]; listed as antisense morpholino 1) | alternative splicing of Serca1 [5] | alternative splicing of ZASP [5] | alternative splicing of Titin m-line exon 5 ([5]; listed as ClC-1 antisense morpholino) | alternative splicing of Titin m-line exon 5 ([5]; listed as antisense morpholino) | myotonia (EMG) [1] | ClC-1 exon 7a inclusion ([2]; 3 weeks (21 days) after single injection + electroporation) | level of ClC-1 mRNA [3]
1 | antisense 1: morpholino 5′-CCAGGCACGGTCTGCAACAGAGAAG-3′ targeting the 3′ splice site of ClC-1 exon 7a (all phosphorodiamidate morpholino (PMO)) | reduced the myotonia | significant reduction of exon 7a inclusion; also recorded: suppressed to wild type (WT) levels | higher level of exon 7a skipping | more effective than targeting the 5′ splice site alone | remained partially suppressed | partial exclusion of exon 7a | increases the fraction of splice products encoding functional ClC-1 channels | increased levels of ClC-1 mRNA | repressed the inclusion of exon 7a | reduced inclusion of exon 7a | nor did it correct the alternative splicing | nor did it correct the alternative splicing | did not correct the misregulated alternative splicing of Titin m-line exon 5 | nor did it correct the alternative splicing |  |  | 
2 | control morpholino: control morpholino 5′-GAAGAGACAACGTCTGGCACGGACC-3′, the 5′-3′ invert of the 3′ splice site blocker (all phosphorodiamidate morpholino (PMO)) [reference compound] |  |  |  |  |  |  |  |  |  |  |  |  |  |  | not in muscle treated with invert control | no effect on ClC-1 splicing; also recorded: not different from untreated HSA^LR muscle | not control morpholino with inverted sequence
